Test results published in PMC4721142, “Randomized controlled studies on the efficacy of antiarthritic agents in inhibiting cartilage degeneration and pain associated with progression of osteoarthritis in the rat” (Arthritis Research & Therapy, 2016).
Values joined by “and” are separate entries in the source; they are usually repeats but may differ in a detail not shown here. Equal entries are not always repeated.

Key:
[1] = tested on: MMT/MCLT rat model of OA; assay: MMT/MCLT trial 1 histopathology (same doses); assay type: in vivo; settings: low or only dose
Source text: For MMT/MCLT rat knee joints, sections were cut in 200-μm steps; stained with toluidine blue (also with a right and left half per section); and similarly analyzed for cartilage degeneration, proteoglycan loss, collagen damage, and osteophyte formation. Results were averaged across the three sections for an overall semiquantitative score. Regional differences across the tibial plateau were taken into consideration by dividing each section into three zones delineated using an ocular micrometer (outside, middle, and inside). Scores were based on the percentage of area affected within the zone.
Cartilage degeneration in the tibia was scored on a 5-point scale as detailed in the Methods section of Additional file 1. The total extent of degeneration of the tibial plateau was measured (in micrometers) and included an analysis of cell loss, proteoglycan loss, and collagen damage. Significant cartilage degeneration reflecting any degeneration extending through more than 50 % of the cartilage thickness was also measured. Collagen damage across the medial tibial plateau (the most severely affected section of the two halves) was also quantified.
Osteophytes and femoral cartilage degeneration were analyzed as detailed in Additional file 1. Scoring of the osteophytes and categorization into small, medium, and large was performed using an ocular micrometer. The actual osteophyte measurement (tidemark to farthest distance point extending toward the synovium) was also recorded. The femoral cartilage degeneration score and the three-zone sum of the tibial cartilage degeneration scores (mean of three levels) were summed to create a total cartilage degeneration score. The mean osteophyte score for each joint was added to this value to create a total joint score. […]
Histopathology MMT/MCLT Model

[2] = tested on: MMP-13; assay: MMP-13 ELISA on supernatants of TNF-α-treated chondrogenic pellets; assay type: cell-based, human
[3] = tested on: MMT/MCLT rat model of OA; assay: MMT/MCLT trial 1 weight bearing (daily morphine 10 mg/kg, tacrolimus 0.3 or 0.6 mg/kg, fluocinolone 5 or 10 μg/kg, clonidine 100 μg/kg, alendronate 10 μg/kg i.p.; curcumin, withaferin 50 mg/kg p.o.); assay type: in vivo; settings: low or only dose
Protocol: Weight bearing (WB; incapacitance) was measured five times per day, once per week, using a Linton incapacitance meter (Stoelting Co., Wood Dale, IL, USA). Rats were acclimated to the meter before study initiation, and, similarly, immediately before WB, the animals were placed in the meter and allowed to acclimate for 2–5 minutes. Each hind paw was placed on a separate force plate so that the force exerted by each side could be averaged over a 5-second interval, and the mean of three readings was taken for each data point. Right paw force was compared with that on the left side for each group to confirm that animals were displaying incapacitance and/or pain behavior. Differences in force (left minus right) and right paw force as a percentage of the total force exerted by both paws were determined and compared between groups.
Following isoflurane anesthesia, the medial collateral ligament was transected just below its attachment to the meniscus in the right knee. The meniscus was cut at its narrowest point away from the ossicles so as not to damage the tibial surface and to ensure that the anterior and posterior meniscus halves were freely movable. […] In trial 2, drugs were administered IA weekly beginning 1 week following surgery. Three weeks postsurgery, animals were humanely killed and their right knees were collected for histopathology. All studies were conducted in accordance with the International Association for the Study of Pain Guidelines and were approved by the Bolder BioPATH IACUC (Boulder, CO, USA) in compliance with regulations before study initiation (IACUC protocol BBP03-006). Those running the studies were blinded to the treatments. See Additional file 1 for further details.
Isoflurane and the right knee area prepared for surgery. A skin incision was made over the medial aspect of the knee and the medial collateral ligament was exposed by blunt dissection and then transected. The medial meniscus was cut through the full thickness to simulate a complete tear and the skin was then closed with suture.
All pharmaceutical agents were prepared and stored as recommended by the supplier. Daily drug preparations were made fresh from stock solutions. […]
In Trial 2 drugs were […]
administered IA weekly beginning one week following surgery. […]
were delivered by gavage and were prepared in 0.3% Methyl Cellulose.
WB was measured five times a day, once a week, using a Linton incapacitance meter (Stoelting Co.) to assess pain behavior. Rats were acclimated to the incapacitance meter prior to study initiation.
Similarly, immediately prior to WB animals were placed in the incapacitance meter and allowed to acclimate for 2-5 minutes. Each hind paw was placed on a separate force plate so that the force exerted by each side could be averaged over a 5 second interval and the mean of three readings taken for each data point. Right paw force was compared to left for each group to confirm that animals were displaying incapacitance / pain behavior. Difference in force (left minus right) and right paw force as a percentage of the total force exerted by both paws were determined and compared between groups. Three weeks after surgery, animals were humanely euthanized and right knees collected for histopathology evaluation.
Figure 2. MMT/MCLT Trial Timeline […]
MMT/MCLT Dosing (once/day)
The study design and animal usage was approved by Bolder BioPATH’s Institutional Animal Care and Use Committee (IACUC) for compliance with regulations prior to study initiation (IACUC […]
Labs. Animals were identified by a distinct mark at the base of the tail delineating group and animal number. After randomization, all cages were labeled with protocol number, group numbers, and animal numbers with appropriate color-coding (see protocol).

Structure (SMILES): NCCCC(O)(P(=O)(O)O)P(=O)(O)O [Alendronate, Alendronate sodium]
- Bone score ([1]; mean): 2.75
- Femoral cartilage degeneration score ([1]; mean): 1.79 and 1.79 ± 0.60
- Tibial cartilage degeneration score, 3-zone total ([1]; mean): 5.83
- Tibial cartilage degeneration score, zone 1 ([1]; mean): 3.79
- Tibial cartilage degeneration score, zone 2 ([1]; mean): 2.04
- Tibial cartilage degeneration score, zone 3 ([1]; mean): 0.00
- Tibial cartilage degeneration width, significant ([1]; mean): 650.00 µm
- Tibial cartilage degeneration width, total ([1]; mean): 1175.00 µm
- Tibial osteophyte measure ([1]; mean): 479.17 µm
- Tibial osteophyte score ([1]; mean): 3.63
- Total joint score ([1]; mean): 11.25
- Total joint score w/o femur ([1]; mean): 9.46
- % decrease, bone score ([1]; vs saline group): 15%
- % decrease, femoral cartilage degeneration score ([1]; vs saline group): 2%
- % decrease, osteophyte measure ([1]; vs saline group): 7%
- % decrease, osteophyte score ([1]; vs saline group): 7%
- % decrease, significant degeneration width ([1]; vs saline group): 11%
- % decrease, tibial score 3-zone total ([1]; vs saline group): 11%
- % decrease, tibial score zone 1 ([1]; vs saline group): 12%
- % decrease, tibial score zone 2 ([1]; vs saline group): 8%
- % decrease, tibial score zone 3 ([1]; vs saline group): 100%
- % decrease, total degeneration width ([1]; vs saline group): 10%
- % decrease, total joint score ([1]; vs saline group): 8%
- % decrease, total joint score w/o femur ([1]; vs saline group): 10%
- Effective range against MMP-13 [2]: Not effective
- Weight bearing, hours with significant effect ([3]; day 7): 5 h
- Weight bearing, hours with significant effect ([3]; day 14): 1 h
